Results: article PMC5572761 (Journal of medicinal chemistry, 2017)
Where a SMILES comes first, the peptide text is derived from it. Bridges are numbered along the chain shown (N, C = ends).

How the values were obtained:
rat α6/α3β4 nAChR = rat α6/α3β4 nAChR (Rattus norvegicus, UniProt P04757+P12392+P43143); type: cell-based
rat α3β4 nAChR = rat α3β4 nAChR (Rattus norvegicus, UniProt P04757+P12392); type: cell-based
Sequence of rat α3β4 nAChR (P04757 26-499 limits assumed): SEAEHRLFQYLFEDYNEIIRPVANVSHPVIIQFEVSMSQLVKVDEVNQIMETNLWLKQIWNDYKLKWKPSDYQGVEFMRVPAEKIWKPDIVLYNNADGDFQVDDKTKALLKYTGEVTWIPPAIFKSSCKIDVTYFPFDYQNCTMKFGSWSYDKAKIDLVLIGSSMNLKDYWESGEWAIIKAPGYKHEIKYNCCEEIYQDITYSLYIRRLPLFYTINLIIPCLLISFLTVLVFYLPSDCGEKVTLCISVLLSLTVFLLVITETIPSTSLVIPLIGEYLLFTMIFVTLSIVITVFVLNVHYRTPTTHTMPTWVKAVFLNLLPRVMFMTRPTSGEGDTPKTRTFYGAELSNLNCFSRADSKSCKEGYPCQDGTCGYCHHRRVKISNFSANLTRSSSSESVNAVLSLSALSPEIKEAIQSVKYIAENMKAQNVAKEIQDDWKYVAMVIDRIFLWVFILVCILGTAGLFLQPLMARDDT
Sequence of rat α3β4 nAChR (P12392 21-495 limits assumed): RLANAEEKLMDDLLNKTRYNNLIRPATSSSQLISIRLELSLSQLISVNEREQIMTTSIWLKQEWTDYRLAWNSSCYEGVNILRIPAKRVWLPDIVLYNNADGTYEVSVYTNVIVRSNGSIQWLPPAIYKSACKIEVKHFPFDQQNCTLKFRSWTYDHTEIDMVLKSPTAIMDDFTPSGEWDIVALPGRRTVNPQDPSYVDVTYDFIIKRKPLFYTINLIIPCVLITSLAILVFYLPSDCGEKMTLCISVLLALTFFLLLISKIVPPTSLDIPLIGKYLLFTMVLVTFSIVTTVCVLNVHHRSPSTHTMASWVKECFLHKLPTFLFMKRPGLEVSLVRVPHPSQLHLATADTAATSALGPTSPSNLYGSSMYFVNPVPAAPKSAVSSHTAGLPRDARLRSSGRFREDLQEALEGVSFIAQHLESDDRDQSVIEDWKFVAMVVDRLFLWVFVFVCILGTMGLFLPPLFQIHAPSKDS

Sequence of rat α6/α3β4 nAChR (P04757 whole entry, looked up): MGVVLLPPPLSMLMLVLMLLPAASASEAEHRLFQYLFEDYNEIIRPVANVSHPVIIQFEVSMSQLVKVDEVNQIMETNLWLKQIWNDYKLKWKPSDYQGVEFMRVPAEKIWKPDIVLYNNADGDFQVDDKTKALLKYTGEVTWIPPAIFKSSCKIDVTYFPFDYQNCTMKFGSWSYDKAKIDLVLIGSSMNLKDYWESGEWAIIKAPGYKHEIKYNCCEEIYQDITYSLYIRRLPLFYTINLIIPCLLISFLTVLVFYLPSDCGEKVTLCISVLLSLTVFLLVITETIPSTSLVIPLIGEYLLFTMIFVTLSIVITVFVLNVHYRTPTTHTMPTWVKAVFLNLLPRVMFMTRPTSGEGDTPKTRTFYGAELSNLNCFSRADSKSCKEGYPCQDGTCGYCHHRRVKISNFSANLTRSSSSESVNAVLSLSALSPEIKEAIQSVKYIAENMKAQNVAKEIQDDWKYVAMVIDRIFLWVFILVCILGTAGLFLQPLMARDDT
Sequence of rat α6/α3β4 nAChR (P12392 whole entry, looked up): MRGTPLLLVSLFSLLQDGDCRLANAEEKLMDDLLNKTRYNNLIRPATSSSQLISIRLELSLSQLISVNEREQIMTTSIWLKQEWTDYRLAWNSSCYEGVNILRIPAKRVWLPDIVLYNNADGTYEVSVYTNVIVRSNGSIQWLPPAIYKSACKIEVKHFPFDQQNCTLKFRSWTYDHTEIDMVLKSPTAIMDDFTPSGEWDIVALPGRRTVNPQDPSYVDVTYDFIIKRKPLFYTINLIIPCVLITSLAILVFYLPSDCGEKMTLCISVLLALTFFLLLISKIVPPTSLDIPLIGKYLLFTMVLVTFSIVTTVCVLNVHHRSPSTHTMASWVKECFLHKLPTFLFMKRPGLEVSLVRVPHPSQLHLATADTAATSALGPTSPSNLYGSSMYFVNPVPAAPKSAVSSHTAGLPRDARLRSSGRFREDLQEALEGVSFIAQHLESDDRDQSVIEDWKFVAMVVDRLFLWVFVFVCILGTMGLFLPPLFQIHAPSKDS
Sequence of rat α6/α3β4 nAChR (P43143 whole entry, looked up): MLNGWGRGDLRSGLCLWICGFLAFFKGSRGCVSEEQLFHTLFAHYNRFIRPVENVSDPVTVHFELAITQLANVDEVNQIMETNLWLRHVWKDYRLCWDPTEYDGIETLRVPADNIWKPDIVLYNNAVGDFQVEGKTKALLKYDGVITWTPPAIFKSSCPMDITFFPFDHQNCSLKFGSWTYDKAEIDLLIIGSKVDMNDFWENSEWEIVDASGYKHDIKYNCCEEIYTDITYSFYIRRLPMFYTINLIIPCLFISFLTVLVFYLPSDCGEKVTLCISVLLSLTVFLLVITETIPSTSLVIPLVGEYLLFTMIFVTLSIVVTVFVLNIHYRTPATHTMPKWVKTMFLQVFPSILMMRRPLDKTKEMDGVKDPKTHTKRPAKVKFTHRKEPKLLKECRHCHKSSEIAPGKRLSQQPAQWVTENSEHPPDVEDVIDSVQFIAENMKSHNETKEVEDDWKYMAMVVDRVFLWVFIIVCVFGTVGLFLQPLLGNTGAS

Structure (SMILES) | Hill slope n^H α6/α3β4 (rat α6/α3β4 nAChR) | α6/α3β4 IC50 ratio relative to 1 (rat α6/α3β4 nAChR) | Hill slope n^H α3β4 (rat α3β4 nAChR) | α3β4 IC50 ratio relative to 1 (rat α3β4 nAChR)
CSCC[C@@H]1NC(=O)[C@H](C)NC(=O)[C@H](CO)NC(=O)[C@@H]2CSSC[C@H](NC(=O)CN)C(=O)N[C@@H](CSSC[C@@H](C(N)=O)NC(=O)[C@H](C)NC(=O)[C@@H]3CCCN3C(=O)[C@H](CO)NC1=O)C(=O)N[C@@H](CO)C(=O)N[C@@H](Cc1c[nH]cn1)C(=O)N1CCC[C@H]1C(=O)N[C@@H](C(C)C)C(=O)N2 [Peptide 11] (H-GCCSHPVCSAMSPAC-NH2; disulfide 2-8, 3-15) | 1.04 (0.77–1.32) | 1.3 | 1.05 (0.39–1.70) | 4.4
CSCC[C@@H]1NC(=O)[C@H](C)NC(=O)[C@H](CO)NC(=O)[C@@H]2CSSC[C@H](NC(=O)CN)C(=O)N[C@@H](CSSC[C@@H](C(N)=O)NC(=O)[C@H](CC(=O)O)NC(=O)[C@@H]3CCCN3C(=O)[C@H](CO)NC1=O)C(=O)N[C@@H](CO)C(=O)N[C@@H](Cc1c[nH]cn1)C(=O)N1CCC[C@H]1C(=O)N[C@@H](C(C)C)C(=O)N2 [Peptide 14] (H-GCCSHPVCSAMSPDC-NH2; disulfide 2-8, 3-15) | 0.84 (0.69–0.98) | 1.2 | 1.33 (0.387–2.26) | 2.7
